Consider one compound from US11179384B2, “Treatment of nonalcoholic fatty liver disease” (TAKEDA GMBH, priority 2016, dated 2021).

Series [1] relates to male C57BL/6J mice (high caloric diet). Put plainly: Liver lipidosis / liver weight, 8 weeks treatment in diet induced obese (DIO) mice. The series is classed as in vivo. The note with it: for Liver weight (Day 56) / Grade Liver Lipidosis (mean): high caloric diet; for Liver weight (Day 56): vehicle HD 1.04, SD 0.96; for Grade Liver Lipidosis (mean): day 56, grades 1 minimal to 4 marked, vehicle HD 1.5. From the text:
Obesity was induced in male C57BL/6J mice (Charles River, Germany; 6 weeks of age weighing 19-20 g at start of study) by feeding a high caloric diet (60% kcal % fat; No. 2127; Provimi-Kliba, Switzerland)) for 7 weeks. Animals were single housed in Makrolon cages type II-Long with free access to food and tap water. When body weight gain exceeded 50% compared to body weight at onset of diet, the animals were randomized according to body weight (day −4) followed by treatment for 8 weeks with daily doses of Compound A (0.3, 1, 3 and 10 mg/kg/day, p.o; dissolved in 4% (w/v) aqueous methocel solution to give the required dose in a volume of 10 mL/kg body weight; n=10 in each group). After 8 weeks of treatment, animals were sacrificed. Liver was removed, weighed and fixed in 4% neutral buffered formalin for 2 days, embedded in paraffine and stained with Hematoxylin-Eosin for histological evaluation. The slides were blinded for histological reading and liver lipidosis was evaluated by light microscopy.
The degree of liver lipidosis was assessed semi-quantitatively by the following grading criteria:
Grade 1 (minimal): small round cytoplasmic vacuoles within hepatocytes
Grade 2 (mild): small to medium sized round cytoplasmic vacuoles within hepatocytes
Grade 3 (moderate): in addition: round cytoplasmic vacuoles, partly forcing the nucleus to the periphery of the cell
Grade 4 (marked): in addition: whole lobe affected
For focal changes or multifocal changes 0.5 or 0.25 were subtracted respectively. The mean severity index was calculated by dividing the sum of all gradings/group by the number of animals/group.

In series [2] the test system is Female db/db mice. Put plainly: HbA1c, 4 weeks treatment in db/db mice. Type of series: in vivo. The note with it: 28 days, vehicle 9.06%. As for the experimental part:
Female db/db mice were purchased from Taconic (Lille Skensved, Denmark) at 5-6 weeks of age and were maintained under standard conditions (5 animals/cage; 12 h light-dark cycle; room temperature of 22±2° C.; relative humidity of 60±15%). All mice had free access to water and standard chow (Provimi Kliba, Kaiseraugst, Switzerland). Four days upon arrival animals were randomized based on body weight and levels of glycated hemoglobin 1c (HbA1c). At 7 weeks of age, animals were treated daily by oral gavage with vehicle (4% methylcellulose) or with Compound A (composed in aqueous 4% methylcellulose) using doses of 1, 3 and 10 mg/kg s.i.d. (doses related to free base). The required dose was applied in a volume of 10 ml/kg body weight. Each dose group consisted of 10 animals. At the end of the treatment period plasma samples were isolated for determination of HbA1c levels. All experimental procedures were conducted according to the German Animal Protection Law.
HbA1c was analyzed from tail-tip-blood (HbA1c determination before treatment) as well as from blood collected from the retro-orbital venous plexus (HbA1c determination after 4 weeks treatment) using the Hemoglobin A1c Test (Siemens, Bad Nauheim, Germany).
Statistical analysis: Values are presented as means±SEM. Statistical differences were determined using one-way-ANOVA followed by a post-hoc analysis with Dunnet's correction (GraphPad Prism).

The subject of series [3] is TNFα gene expression. Put plainly: Hepatic gene expression in prophylactic NASH mouse model, TNFα (Taqman PCR). Type of series: in vivo. The settings on record: LDLR-KO mice on mCDAA diet; 1, 3 and 10 mg/kg p.o. QD for 7 weeks; liver mRNA. The protocol: Homozygous low-density lipoprotein receptor knockout (LDLR-KO) mice were fed with chow or modified choline deficient, L-amino acid-defined (mCDAA) diet (A08111307, Research Diets, USA). After 1 week under chow or mCDAA diet, the mice were orally dosed with Compound A (1, 3 and 10 mg/5 ml/kg, QD, n=10; suspension in 0.5 w/v % methylcellulose suspension) for 7 weeks.
In addition prophylactic effects of Compound A on hepatic gene expression were evaluated. After total RNA was extracted from liver, cDNA was amplified using High-Capacity cDNA Reverse Transcription Kit (ABI 4368813), and target gene mRNA was measured using Taqman PCR. The target gene expression level was normalized by GAPDH.
(Real-time PCR tracks product formation cycle by cycle.)

Series [4] relates to Male C57BL/6J mice (DIO). Put plainly: Body weight, fat and lean mass, 4 weeks treatment in diet-induced obese (DIO) mice. The series is classed as in vivo. The settings on record: for Body weight change from pretreatment (Day 0): mean±S.D., vehicle +3.8%. As for the experimental part:
Male C57BL/6J mice were obtained from CLEA Japan, Inc. The mice were fed High fat diet D12451 (Research diets, Inc) from 5 week to 54-week old and water ad libitum.
All mice were housed individually in animal cages and used for the study after 2 weeks of acclimation period. Animal groups (n=7) were treated with either vehicle (0.5 w/v % methylcellulose, p.o.) or Compound A (1 mg/kg or 3 mg/kg, p.o. suspension in 0.5 w/v % methylcellulose solution) in the evening once a day for 4 weeks from 50 weeks of age. Body weight was measured 2 or 3 times per week. Regarding body composition fast mass and lean mass were measured.
Body composition (fat mass and lean mass) was measured by Echo-MRI-900 (ALOKA Japan).
All data are presented as mean±S.D. For evaluation of the effects of Compound A, statistical significances between vehicle (p.o.) and Compound A treated groups were analyzed with one-tailed Williams' test or Shirley-Williams test when the variances among the groups were homogeneous or heterogeneous, respectively. The p-values less than 0.025 were considered statistically significant in one-tailed Williams' test or Shirley-Williams test. Body weight change from pretreatment (Day 0) was calculated using the following formula: [(BW-BW at Day 0)/BW at Day 0]×100.

A short description of series [5]: Phase 1 clinical studies (single rising dose and multiple rising dose). The series is classed as in vivo, humans. From the text:
Compound A differs from other development candidates intended for the treatment of NAFLD/NASH in that it exerts its effects via anti-inflammatory, anti-fibrotic and anti-steatotic mode of action. […] It is furthermore believed that all of these effects observed in in vitro and animal experiments will translate in corresponding effects in the clinical setting in humans.

Where [6] appears, read: 3 and 10 mg/kg p.o. daily, 8 weeks.
The mark [7] stands for this setting: 1 mg/kg p.o. once a day for 4 weeks.
Where [8] appears, read: 1 and 3 mg/kg p.o. once a day for 4 weeks.

Consider `CCOc1cc2c(cc1OC)C(c1ccc(=O)n(C)c1)=N[C@@H]1CC[C@@H](O)C[C@H]21` [Compound A, 5-((2R,4aR,10bR)-9-Ethoxy-2-hydroxy-8-methoxy-1,2,3,4,4a,10b-hexahydro-phenanthridin-6-yl)-1-methyl-1H-pyridin-2-one], for which, in series [1] (setting [6]), the “increase in liver weight caused by high caloric diet” value is given as “completely abolished”. Moreover, the liver lipidosis entry in series [1] (setting [6]) is listed as “almost abolished”. Also, the “Liver weight (Day 56)” value is recorded as 1.08 g in series [1] (0.3 mg/kg p.o. daily, 8 weeks); 1.01 g in series [1] (1.0 mg/kg p.o. daily, 8 weeks); 0.96 g in series [1] (3.0 mg/kg p.o. daily, 8 weeks); 0.95 g in series [1] (10 mg/kg p.o. daily, 8 weeks). The “Grade Liver Lipidosis (mean)” value worked out at 1.4 in series [1] (0.3 mg/kg p.o.), 0.6 in series [1] (1.0 mg/kg p.o.), 0.3 in series [1] (3.0 mg/kg p.o.) and 0.2 in series [1] (10.0 mg/kg p.o.). Moreover, the “mean HbA1c” value is recorded as 7.27% in series [2] (1 mg/kg p.o. daily, 1 mg/kg); 7.06% in series [2] (3 mg/kg p.o. daily, 3 mg/kg); 6.16% in series [2] (10 mg/kg p.o. daily, 10 mg/kg). Also, the “hepatic inflammatory TNFα gene expression (normalized by GAPDH)” value in series [3] is “dose-dependent reduction”. Moreover, the “body weight reduction corrected with vehicle-treated body weight change” value in series [4] (setting [7]) is on record as −8.7±3.5%. Moreover, the entries for the “Body weight change from pretreatment (Day 0)” value in series [4] (setting [7]) and in series [4] (3 mg/kg p.o. once a day for 4 weeks) were −4.9±3.5% and −17.2±4.0%, respectively. Also, in series [4] (1 and 3 mg/kg p.o. once a day), the “body weight during the 4-week study period” value is listed as “durable body weight lowering effect”. The “fat mass (Echo-MRI)” value in series [4] (setting [8]) is “dose dependently and significantly decreased”. For the same compound, the “lean mass (Echo-MRI)” value in series [4] (setting [8]) was “without affecting”. Besides, the “PDE4 inhibitor specific adverse events (diarrhea, nausea)” value in series [5] (Phase 1, single dose 0.05 to 0.85 mg, multiple dose 0.05 to 0.8 mg 7 days, 0.35 and 0.8 mg up to 14 days) is on record as “no PDE4 inhibitor specific adverse events”. Also, in series [5] (Phase 1 single rising dose and multiple rising dose studies), the “safety and pharmacokinetic profile” value is given as “very favorable”.
